Assay results published in publication PMC6934184, “Selective DNA-PKcs inhibition extends the therapeutic index of localized radiotherapy and chemotherapy” (The Journal of Clinical Investigation, 2019).

Biological target: T1, CLK4 (Homo sapiens, UniProt Q9HAZ1)
T1 construct: purchased Thermo Fisher Scientific (Life Technologies) SelectScreen
Test: SelectScreen LanthaScreen
Format: binding
Conditions: read-out: % displacement
Method in brief: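 NU5455 was profiled across the SelectScreen Broad panel of kinase activity and binding assays. Z'LYTE reactions such as CSF1R ran at apparent Km ATP, while the Adapta CAMK1 assay used ATP listed as 10. Values are given as percent.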

T1 sequence (Q9HAZ1 whole entry): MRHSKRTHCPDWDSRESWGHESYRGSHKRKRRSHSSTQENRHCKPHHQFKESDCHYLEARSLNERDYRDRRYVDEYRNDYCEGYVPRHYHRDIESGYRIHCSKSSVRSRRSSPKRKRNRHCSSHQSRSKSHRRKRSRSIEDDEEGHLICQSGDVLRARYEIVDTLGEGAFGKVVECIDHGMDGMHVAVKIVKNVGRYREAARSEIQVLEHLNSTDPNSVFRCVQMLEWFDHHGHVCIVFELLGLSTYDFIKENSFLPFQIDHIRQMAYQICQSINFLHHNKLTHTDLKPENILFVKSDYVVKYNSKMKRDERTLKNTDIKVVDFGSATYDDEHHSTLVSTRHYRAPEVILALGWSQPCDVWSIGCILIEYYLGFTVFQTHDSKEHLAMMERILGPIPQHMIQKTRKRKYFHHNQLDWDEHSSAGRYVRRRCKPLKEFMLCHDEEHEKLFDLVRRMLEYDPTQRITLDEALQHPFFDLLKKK

Q: How did the inhibition at 1 µM turn out when CN(C(=O)CN1CCOCC1)c1ccc2sc3c(-c4cccc5c(=O)cc(N6CC7CCC(C6)O7)oc45)cccc3c2c1 [NU5455] was run?
A: 1.4%
